According to US6376666B1 (Nauchno-Issledovatelsky Institut Farmakologii Rossiiskoi …, priority 1994, dated 2002):
Marks after values point to notes of the source that are not given here.

How the values were obtained:
[1] = tested on: ischemized myocardium of cats; assay: ST-segment elevation during 5 min occlusions of coronary artery (acute coronary deficiency); format: in vivo; details: for change in mean elevation of ST-segment vs control occlusion: cats, 1.0 mg/kg i.v.
Experimental: These experiments were conducted in cats weighing 2,5-4,0 kg under anasthesia by i.v. injection of nembutal (40 mg/kg) in open chest conditions. Epicardium electrogram in 3-4 leads was registered in “Mingograph-81”. The value of mean elevation of ST-segment during 5 min occlusions of anterior left descending coronary artery with 15 min reperfusions between them was the main index of intensity of reversible ischemized damage of myocardium.
The statistical calculation was carried out with non-parametric Wilcocson method for associated variants.

[2] = tested on: ischemized myocardium of cats; assay: contractile and pump functions and ATP level of ischemized myocardium (20-40 min occlusion, reperfusion); format: in vivo
Experimental: The effects of this compound on contractile and pump functions of ischemized myocardium were studied in cats weighing 3,0-4,5 kg under anesthesia with nembutal (40 mg/kg). […] The phase curve of blood flow in ascending part of the aortic arch was recorded with electromagnetic blood flowmeter MFV-1200 (“Nihon-Kohden”, Japan). Hemodynamics, heart activity values and the number of arrhythmia were calculated. In the experiments with 40 min ischemia immediately after 60 min the intact and ischemized zones of left ventricle were dissected and freezed in liquid nitrogen. ATP level was measured using hexokinase method in these zones. 4 series of experiments (2-control and 2-basic) were conducted in 12 cats in each. For statistical calculation the t-Student and Fisher's precision test were used.

[3] = in vivo; details: rat, iv
[4] = tested on: outbred male rats; assay: conflict Vogel test (punished licking of water); format: in vivo; details: M ± mx
Experimental: The study of anxiolytic activity of chosen compounds was carried out in the experiments with outbred male rats weighing 180-200 g in standard conflict Vogel' procedure [Voronina T. A. et al., in: “Phenazepam”, Naukova Dumka, Kiev, 1982, p.89, 93, 146]. The main aim of the initial step of experiments was the training of rats to develop the feeling of thirst with following experience of water licking from bottle in the experimental chamber. The animals were deprived of water for 24 hours and were placed in the test chamber for 5-min adaptation period during which they had free access to the drinking bottle. After another 24 h deprivation period the rats were placed again in the test chamber and were allowed to drink water for 5 sec. Immediately afterwards drinking attempts were punished by electric shock (0,5 mA). Under this collision of drinking and protective reflexes the extremal situation was developed. In this situation the anxiety of punishment prevented the licking process. The number of shocks received throughout a 5-min experimental session was recorded.

[5] = tested on: outbred male mice; assay: rotarod test (myorelaxant activity); format: in vivo; details: for time of remaining on the rotarod: cut-off 120 sec
Experimental: The myorelaxant activity of choosen compounds were studied in the outbred male mice weighing 22-25 g in rotarod test [Voronina T. A. et al., in: “Phenazepam”, Naukova Dumka, Kiev, 1982, p.145]. The animals were placed on the horizontal rotarod (D=2 cm) calibrated for a fixed speed of 4 rpm. According to the rotarod experimental protocol, normal motor coordination was defined by the ability of the animals to remain on the rotarod for an arbitrarily selected time of 120 sec.

[6] = tested on: male outbred mice; assay: potentiation of sleep induced by sodium thiopental; format: in vivo
Experimental: The possible hypnotic effects of choosen drugs was estimated according to method of potentiation of sleep induced by sodium thiopental. The male outbred mice weighing 20-25 g were injected i.p. with sodium thiopental at dose of 70 mg/kg. Two parameters were estimated: latent time of sleeping and duration of sleep. The used compounds were administered i.p. 30 min prior injection of sodium thiopental.

[7] = acute toxicity after per os administration; details: mouse, in vivo, oral; outbred mice, per os, 1% starch suspension, Litchfield-Wilcocson
Experimental: (§1) The acute toxicity was measured in outbred mice after per os administration of used drugs in the 1% starch suspension. The lethal doses were calculated according to Litchfield-Wilcocson' method. […].

[8] = tested on: outbred mice; assay: acute toxicity after per os administration; details: mouse, in vivo
Experimental: as §1

[9] = 40 min occlusion, 60 min reperfusion
[10] = 0.01 mg/kg i.p. 30 min before thiopental 70 mg/kg i.p.
[11] = 0.1 mg/kg i.p. 30 min before thiopental 70 mg/kg i.p.
[12] = 1.0 mg/kg i.p. 30 min before thiopental 70 mg/kg i.p.
[13] = 5.0 mg/kg i.p. 30 min before thiopental 70 mg/kg i.p.
[14] = 10.0 mg/kg i.p. 30 min before thiopental 70 mg/kg i.p.

## CCOc1ccc2nc(SCCN(CC)CC)[nH]c2c1 [Compound IX, 2-[2-(Diethylamino)ethylthio]-5-ethoxybenz-imidazole]
[1]; occlusion 20 min after injection, 15 sec of reperfusion
  change in mean elevation of ST-segment vs control occlusion: −0.8* mv
[1]; occlusion 20 min after injection, 30 sec of occlusion
  change in mean elevation of ST-segment vs control occlusion: −0.7 mv
[1]; occlusion 20 min after injection, 2 min of occlusion
  change in mean elevation of ST-segment vs control occlusion: −1.4* mv
[1]; occlusion 20 min after injection, 3 min of occlusion
  change in mean elevation of ST-segment vs control occlusion: −1.4* mv
[1]; occlusion 20 min after injection, 5 min of occlusion
  change in mean elevation of ST-segment vs control occlusion: −1.2 mv
[1]; occlusion 40 min after injection, 15 sec of reperfusion
  change in mean elevation of ST-segment vs control occlusion: −1.0* mv
[1]; occlusion 40 min after injection, 30 sec of occlusion
  change in mean elevation of ST-segment vs control occlusion: −0.5 mv
[1]; occlusion 40 min after injection, 1 min of occlusion
  change in mean elevation of ST-segment vs control occlusion: −0.5* mv
[1]; occlusion 40 min after injection, 2 min of occlusion
  change in mean elevation of ST-segment vs control occlusion: −1.0* mv
[1]; occlusion 40 min after injection, 3 min of occlusion
  change in mean elevation of ST-segment vs control occlusion: −1.2 mv
[1]; occlusion 40 min after injection, 5 min of occlusion
  change in mean elevation of ST-segment vs control occlusion: −1.0 mv
[1]; occlusion immediately after injection, 15 sec of reperfusion
  change in mean elevation of ST-segment vs control occlusion: −1.2* mv
[1]; occlusion immediately after injection, 30 sec of occlusion
  change in mean elevation of ST-segment vs control occlusion: −1.8** mv
[1]; occlusion immediately after injection, 1 min of occlusion
  change in mean elevation of ST-segment vs control occlusion: −1.9** mv
[1]; occlusion immediately after injection, 2 min of occlusion
  change in mean elevation of ST-segment vs control occlusion: −2.4** mv
[1]; occlusion immediately after injection, 3 min of occlusion
  change in mean elevation of ST-segment vs control occlusion: −1.9** mv
[1]; occlusion immediately after injection, 5 min of occlusion
  change in mean elevation of ST-segment vs control occlusion: −2.2** mv
[1]; cats, 1,0 mg/kg i.v.
  duration of anti-ischemic effect after injection: 40 min
  effect on mean elevation of ST-segment during 5 min occlusion, in words: decreased the mean elevation of ST-segment
[2]; 20 min occlusion, 30 min reperfusion
  effect on number of arrhythmias during occlusion and reperfusion, in words: decreased the number of arrhythmias
[2]; 20 min occlusion, 30 min reperfusion, 1,0 mg/kg bolus +50 mcg/kg/min i.v.
  effect on cardiac output, in words: prevented the decrease in cardiac output
[2]; 20 min occlusion, 30 min reperfusion, 1,0 mg/kg bolus +50 mcg/kg/min i.v. during 30 min
  effect on inhibition of contractile function of myocardium induced by ischemic damage, in words: significantly prevents the inhibition of contractile function of myocardium
[2]; [9]
  effect on ATP level in intact zones of myocardium, in words: did not change it in the intact zones
  effect on cardiac output, in words: no effect on changes in cardiac output
  effect on stroke volume, in words: prevented the decrease in stroke volume
[2]; 40 min occlusion, 60 min reperfusion, hexokinase method
  effect on ATP level in ischemized myocardium, in words: increased the ATP level in the ischemized myocardium
[2]; critical and mild ischemia
  effect on number of arrhythmias induced by occlusion and reperfusion, in words: did not reduced the number of arrhythmias
[2]; critical ischemia: 40 min occlusion, 60 min reperfusion
  effect on inhibition of contractile function of heart, in words: prevented the inhibition of contractile function of heart
[3]
  LD50: 31.5 mg/kg

## CCOc1ccc2nc(SCCN3CCOCC3)[nH]c2c1 [XII, 2-[2-(Morpholino)ethylthio]-5-ethoxybenzimidazole]
[4]; 1.0 mg/kg i.p.
  number of punished lickings (shocks received in 5-min session): 15.3 ± 3.4
[4]; 5.0 mg/kg i.p.
  number of punished lickings (shocks received in 5-min session): 19.0 ± 2.5
[4]; 10.0 mg/kg i.p.
  number of punished lickings (shocks received in 5-min session): 15.4 ± 2.5
[4]; 20.0 mg/kg i.p.
  number of punished lickings (shocks received in 5-min session): 28.0 ± 5.8
[5]; 0.01 mg/kg
  time of remaining on the rotarod: 120.0 + 0 sec
[5]; 0.1 mg/kg
  time of remaining on the rotarod: 120.0 + 0 sec
[5]; 1.0 mg/kg
  time of remaining on the rotarod: 120.0 + 0 sec
[5]; 5.0 mg/kg
  time of remaining on the rotarod: 120.0 + 0 sec
[5]; 10.0 mg/kg
  time of remaining on the rotarod: 120.0 + 0 sec
[5]; 20.0 mg/kg
  time of remaining on the rotarod: 118.8 ± 1.6 s
[5]; 50.0 mg/kg
  time of remaining on the rotarod: 111.3 ± 7.5 s
[5]; dose range 0,01 mg/kg-50 mg/kg
  effect on motor coordination in rotarod test, in words: no effect on the motor coordination
[6]; [10]
  duration of sleep after sodium thiopental: 76.4 ± 16.7 min
  latent time of sleep after sodium thiopental: 1.86 ± 0.27 s
[6]; [11]
  duration of sleep after sodium thiopental: 54.5 ± 9.9 min
  latent time of sleep after sodium thiopental: 1.94 ± 0.18 s
[6]; [12]
  duration of sleep after sodium thiopental: 67.9 ± 4.3 min
  latent time of sleep after sodium thiopental: 2.78 ± 0.17 s
[6]; [13]
  duration of sleep after sodium thiopental: 71.7 ± 14.6 min
  latent time of sleep after sodium thiopental: 2.21 ± 0.17 s
[6]; [14]
  duration of sleep after sodium thiopental: 92.4 ± 9.9 min
  latent time of sleep after sodium thiopental: 2.28 ± 0.24 s
[7]
  LD50: 1160 mg/kg
[8]
  toxicity, conclusion in words: not toxic
